The values below come from patent US8916570B2 (The United States of America, as represented by the …, priority 2008, dated 2014).

Assay [1] concerns the target T1, human A3 adenosine receptor (Homo sapiens, UniProt P0DMS8).
T1 sequence (P0DMS8 1-318): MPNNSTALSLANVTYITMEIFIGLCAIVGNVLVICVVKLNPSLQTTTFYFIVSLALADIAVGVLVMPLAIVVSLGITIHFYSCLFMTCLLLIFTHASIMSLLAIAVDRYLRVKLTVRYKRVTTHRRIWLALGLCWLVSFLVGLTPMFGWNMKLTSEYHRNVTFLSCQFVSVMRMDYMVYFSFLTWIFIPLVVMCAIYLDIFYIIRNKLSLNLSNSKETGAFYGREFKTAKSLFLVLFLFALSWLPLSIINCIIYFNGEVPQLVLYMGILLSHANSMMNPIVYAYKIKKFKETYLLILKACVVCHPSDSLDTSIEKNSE
The experiment in a line: [125I]I-AB-MECA binding, human A3 AR, CHO membranes (Table 1). The settings on record: for Ki: A3 Ki, species H (human); for Selectivity A1/A3: human.

For assay [2], the target named is T2, mouse A3 adenosine receptor (Mus musculus, UniProt Q61618).
T2 sequence (Q61618 1-319): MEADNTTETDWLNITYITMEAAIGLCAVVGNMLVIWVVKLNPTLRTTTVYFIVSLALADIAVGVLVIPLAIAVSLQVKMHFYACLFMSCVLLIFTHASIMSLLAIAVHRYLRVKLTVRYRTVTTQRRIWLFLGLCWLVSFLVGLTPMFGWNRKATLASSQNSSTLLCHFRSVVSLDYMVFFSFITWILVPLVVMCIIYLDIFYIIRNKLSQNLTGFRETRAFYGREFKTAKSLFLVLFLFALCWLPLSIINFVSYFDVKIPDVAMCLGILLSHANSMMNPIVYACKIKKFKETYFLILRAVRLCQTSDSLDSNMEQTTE
As to the kind of experiment: Competition radioligand binding, mouse A3 AR, HEK293 membranes (Table 1). The settings on record: for Ki: A3 Ki, species M (mouse), [125I]I-AB-MECA; for Selectivity A1/A3: mouse.

Assay [3] has as its target T3, human A1 adenosine receptor (Homo sapiens, UniProt P30542).
T3 sequence (P30542 1-326): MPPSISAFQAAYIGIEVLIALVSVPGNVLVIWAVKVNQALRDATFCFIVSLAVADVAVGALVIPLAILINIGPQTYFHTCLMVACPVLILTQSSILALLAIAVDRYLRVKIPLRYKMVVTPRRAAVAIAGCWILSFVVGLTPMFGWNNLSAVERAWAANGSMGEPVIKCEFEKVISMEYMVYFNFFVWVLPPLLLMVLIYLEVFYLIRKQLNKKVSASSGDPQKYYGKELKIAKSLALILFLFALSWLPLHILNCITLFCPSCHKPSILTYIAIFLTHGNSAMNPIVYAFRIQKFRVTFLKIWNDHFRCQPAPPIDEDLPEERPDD
The experiment in a line: Radioligand binding, human A1 AR, CHO membranes (Table 1). The following applies: for A1 % inhib.: species H (human), percent in parentheses, concentration not marked.

For assay [4], the target named is human A2A adenosine receptor (Homo sapiens, UniProt P29274). As to the kind of experiment: Radioligand binding, human A2A AR (Table 1). The settings on record: for inhibition at 10 µM: read-out: A2A % inhib.
human A2A adenosine receptor, sequence (P29274 whole entry): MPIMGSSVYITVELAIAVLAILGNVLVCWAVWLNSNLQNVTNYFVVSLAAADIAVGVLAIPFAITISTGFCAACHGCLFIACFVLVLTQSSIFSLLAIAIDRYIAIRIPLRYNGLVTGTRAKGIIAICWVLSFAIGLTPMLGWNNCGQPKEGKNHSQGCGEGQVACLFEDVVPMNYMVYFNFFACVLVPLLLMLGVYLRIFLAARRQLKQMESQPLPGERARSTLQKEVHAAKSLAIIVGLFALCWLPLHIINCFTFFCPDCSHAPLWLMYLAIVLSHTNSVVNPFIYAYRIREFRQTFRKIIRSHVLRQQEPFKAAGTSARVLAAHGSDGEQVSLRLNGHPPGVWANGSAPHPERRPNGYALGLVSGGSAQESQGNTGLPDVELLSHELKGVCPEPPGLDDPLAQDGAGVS
The target in assay [5] is mouse A2A adenosine receptor (Mus musculus, UniProt Q60613). The experiment in a line: Competition radioligand binding, mouse A2A AR, HEK293 membranes (Table 1). The settings on record: read-out: A2A % inhib.
mouse A2A adenosine receptor, sequence (Q60613 whole entry): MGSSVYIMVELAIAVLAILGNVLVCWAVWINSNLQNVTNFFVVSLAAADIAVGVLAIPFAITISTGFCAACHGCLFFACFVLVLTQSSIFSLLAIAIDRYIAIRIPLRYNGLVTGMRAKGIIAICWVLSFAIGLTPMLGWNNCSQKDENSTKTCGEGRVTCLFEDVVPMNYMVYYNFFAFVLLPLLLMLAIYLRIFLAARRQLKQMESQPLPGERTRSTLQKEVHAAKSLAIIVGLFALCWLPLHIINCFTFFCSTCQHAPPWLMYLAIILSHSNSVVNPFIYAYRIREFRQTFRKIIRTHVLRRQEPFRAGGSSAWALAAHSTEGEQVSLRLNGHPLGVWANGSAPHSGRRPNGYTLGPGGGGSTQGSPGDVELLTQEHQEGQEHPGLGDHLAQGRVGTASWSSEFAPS
Assay [6] concerns the target T4, mouse A1 adenosine receptor (Mus musculus, UniProt Q60612).
T4 sequence (Q60612 1-326): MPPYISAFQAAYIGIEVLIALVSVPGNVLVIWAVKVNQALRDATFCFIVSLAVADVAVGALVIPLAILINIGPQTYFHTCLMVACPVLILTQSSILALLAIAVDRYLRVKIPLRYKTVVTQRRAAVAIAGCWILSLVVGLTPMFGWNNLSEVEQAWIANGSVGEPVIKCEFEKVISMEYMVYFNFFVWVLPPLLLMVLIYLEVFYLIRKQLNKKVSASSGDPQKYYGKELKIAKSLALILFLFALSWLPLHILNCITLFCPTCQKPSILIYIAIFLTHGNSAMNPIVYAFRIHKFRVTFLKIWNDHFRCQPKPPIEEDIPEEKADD
The experiment in a line: Competition radioligand binding, mouse A1 AR, HEK293 membranes (Table 1).

The next assay deals with T5, mA1AR (Mus musculus, UniProt Q60612).
T5 construct: expressed in transfected cells
T5 sequence (Q60612 1-326): T4 sequence (Q60612 1-326)
As to the kind of experiment: Competition binding at mA1AR, HEK293 membranes (Example 8). The following applies: percent in parentheses, concentration not given.

For another assay, the target named is T6, hA3AR (Homo sapiens, UniProt P0DMS8).
T6 construct: expressed in transfected cells; host or cells: CHO
T6 sequence (P0DMS8 1-318): T1 sequence (P0DMS8 1-318)
The experiment in a line: Binding at hA3AR, CHO membranes (Example 7). The following applies: read-out: Affinity (Ki, nM) hA3.

The next assay deals with T7, mA3AR (Mus musculus, UniProt Q61618).
T7 construct: expressed in transfected cells
T7 sequence (Q61618 1-319): T2 sequence (Q61618 1-319)
As to the kind of experiment: Competition binding at mA3AR, HEK293 membranes (Example 8). The settings on record: read-out: Affinity (Ki, nM) mA3.

The target of the next assay is T8, hA2AAR (Homo sapiens, UniProt P29274).
T8 construct: expressed in transfected cells
T8 sequence (P29274 whole entry): as the sequence (P29274 whole entry) above
The experiment in a line: Binding at hA2AAR, HEK-293 membranes (Example 7). The settings on record: read-out: % inhibition hA2A. The procedure:
After harvesting, cells were homogenized and suspended in PBS.
Nonspecific binding was determined using a final concentration of 10 μM 51 diluted with the buffer.

The next assay has as its target T9, hA1AR (Homo sapiens, UniProt P30542).
T9 construct: expressed in transfected cells; host or cells: CHO
T9 sequence (P30542 1-326): T3 sequence (P30542 1-326)
As to the kind of experiment: Binding at hA1AR, CHO membranes (Example 7). The settings on record: read-out: % inhibition hA1.

The next assay concerns the target T10, human A3AR (Homo sapiens, UniProt P0DMS8).
T10 construct: expressed in transfected cells; host or cells: CHO
T10 sequence (P0DMS8 1-318): T1 sequence (P0DMS8 1-318)
The experiment in a line: Inhibition of forskolin-stimulated cyclic AMP production in AR transfected CHO cells (Table 1). The assay is classed as cell-based. The following applies: CHO; read-out: % Efficacy at the human A3 AR.

Procedure for hA1AR: CHO cells stably expressing the recombinant hA1, hA3, and rA3Rs, and HEK-293 cells stably expressing the hA2AAR were cultured in Dulbecco's modified Eagle medium (DMEM) and F12 (1:1) supplemented with 10% fetal bovine serum, 100 units/mL penicillin, 100 μg/mL streptomycin, and 2 μmol/mL glutamine. In addition, 800 μg/mL geneticin was added to the A2A media, while 500 μg/mL hygromycin was added to the A1 and A3 media. After harvesting, cells were homogenized and suspended in PBS. Cells were then centrifuged at 240 g for 5 min, and the pellet was resuspended in 50 mM Tris-HCl buffer (pH 7.5) containing 10 mM MgCl2. The suspension was homogenized and was then ultra-centrifuged at 14,330 g for 30 min at 4° C. […] The protein concentration was measured using the BCA Protein Assay Kit from Pierce Biotechnology, Inc. (Rockford, Ill.).
Into each tube in the binding assay was added 50 μL of increasing concentrations of the test ligand in Tris-HCl buffer (50 mM, pH 7.5) containing 10 mM MgCl2, 50 μL of the appropriate agonist radioligand, and finally 100 μL of membrane suspension. […] For the A2AAR (20 μg/tube) the radioligand used was [^3H]53 (10 nM). […] Nonspecific binding was determined using a final concentration of 10 μM 51 diluted with the buffer. The mixtures were incubated at 25° C. for 60 min in a shaking water bath. Binding reactions were terminated by filtration through Brandel GF/B filters under a reduced pressure using a M-24 cell harvester (Brandel, Gaithersburg, Md.). Filters were washed three times with 3 mL of 50 mM ice-cold Tris-HCl buffer (pH 7.5). […] Filters for A3AR binding were counted using a Packard COBRA™ II γ-counter. The Ki values were determined using GraphPad Prism for all assays.

Turning to `CNC(=O)C12CC1C(n1cnc3c(NCc4cccc(Cl)c4)nc(SC)nc31)C(O)C2O` (stereo not shown) [Compound 20], the Ki in assay [1] amounted to 1.5 nM; in assay [2] it was 1.19 ± 0.09 nM; in assay [3], 610 nM; in assay [4] it was 10000 nM; in assay [6], 98.9 ± 18.8 nM. The “Selectivity A1/A3” value in [2] was determined as 83. Moreover, the inhibition at 100 µM in assay [5] was found to be 32%.

Regarding `CNC(=O)[C@@]12C[C@@H]1[C@@H](n1cnc3c(NCc4cccc(Cl)c4)nc(C#Cc4ccc(-c5ccccc5)cc4)nc31)[C@H](O)[C@@H]2O` [Compound 335, (1S,2R,3S,4R,5S)-4-(2-(Biphenyl-4-ylethynyl)-6-(3-chlorobenzylamino)-9H-purin-9-yl)-2,3-dihydroxy-N-methylbicyclo[3.1.0]hexane-1-carboxamide], the “% inhibition mA1” value on mA1AR is recorded as “(28%)”. Besides, the inhibitory constant (Ki) on hA3AR was 3.06 ± 1.35 nM; at mA3AR, 22 nM. Besides, the inhibition at 10 µM at hA2AAR came to 0%.

Consider `CNC(=O)C12CC1C(n1cnc3c(NOC)nc(Cl)nc31)C(O)C2O` (stereo not drawn) [Compound 21, (1′S,2′R,3′S,4′S,5′S)-4′-[6-Methoxyamino-2-chloropurin-9-yl]-2′,3′-dihydroxybicyclo[3.1.0]hexane-1′-carboxylic acid N-methylamide], for which the inhibition constant Ki in [1] is 149 ± 15 nM; in assay [2] it was 877 ± 149 nM; in assay [3], 265 ± 45 nM; in assay [6] it was 1160 ± 130 nM. Further, the results for the “Selectivity A1/A3” value in [1] and in [2] were 1.8 and 1.3, respectively. Moreover, the inhibition at 10 µM in assay [4] turned out to be 2%. The inhibition at 100 µM in [5] is 2%.

For the molecule `CNC(=O)[C@@]12C[C@@H]1[C@@H](n1cnc3c(NCc4cccc(Cl)c4)nc(C#Cc4ccccc4Cl)nc31)[C@H](O)[C@@H]2O` [Compound 329, (1S,2R,3S,4R,5S)-4-(6-(3-Chlorobenzylamino)-2-((2-chlorophenyl)ethynyl)-9H-purin-9-yl)-2,3-dihydroxy-N-methylbicyclo[3.1.0]hexane-1-carboxamide], the “% inhibition mA1” value at mA1AR is “(36%)”. Also, the Ki was 1.92 ± 0.57 nM at hA3AR and 7.5 nM on mA3AR. Further, the inhibition at 10 µM at hA1AR is 20%; on hA2AAR, 52%.

As for `CNC(=O)C12CC1C(n1cnc3c(NC4CCCC4)nc(Cl)nc31)C(O)C2O` (stereo not shown) [Compound 32], the Emax at 10 µM at human A3AR came out at 101%. Also, the Ki in [3] amounted to 18.3 ± 6.3 nM; in assay [4] it was 3250 ± 300 nM.

In turn, `CNC(=O)C12CC1C(n1cnc3c(NCc4cccc(Cl)c4)nc(C#CCCC(=O)NCCNC(=O)CCCCCNC(=O)CCCCC4SCC5NC(=O)NC54)nc31)C(O)C2O` (stereo not drawn) [Compound 43, (1′S,2′R,3′S,4′S,5′S)-4′-[6-(3-Chlorobenzylamino)-2-(N-biotinyl {5-aminopentanyl}(β-aminoethylaminocarbonyl)-1-butynyl)-9-yl]-2′,3′-dihydroxybicyclo[3.1.0]hexane-1′-carboxylic acid N-methylamide] gave a Ki in [1] of 57.7 ± 16.2 nM. Moreover, on human A3AR, the Emax at 10 µM is 106 ± 17.7%. The A1 % inhib. entry in [3] is reported as “(8 ± 4%)”.

As to `CNC(=O)C12CC1C(n1cnc3c(NCc4cccc(C#CCCCC(=O)NCCN)c4)nc(Cl)nc31)C(O)C2O` (stereo not shown) [Compound 10], the inhibitory constant (Ki) in [1] was 5.21 nM; in assay [2], 11.9 ± 2.4 nM; in assay [3], 271 ± 23 nM; in assay [6] it was 151 ± 18 nM. Further, the “Selectivity A1/A3” value is 52 in [1] and 13 in assay [2]. The inhibition at 10 µM in assay [4] was 58%. For the same molecule, the inhibition at 100 µM in assay [5] worked out at 39%.

`CNC(=O)C12CC1C(n1cnc3c(NCc4cccc(Cl)c4)nc(C#C[Si](C)(C)C)nc31)C(O)C2O` (stereo not drawn) [Compound 4, (1′S,2′R,3′S,4′S,5′S)-4′-[6-(3-Chlorobenzylamino)-2-trimethylsilylethynyl-9-yl]-2′,3′-dihydroxybicyclo[3.1.0]hexane-1′-carboxylic acid N-methylamide]: the Ki in assay [1] turned out to be 0.98 ± 0.14 nM; in assay [2] it was 4.46 ± 0.57 nM; in assay [3] it was 160 ± 40 nM; in assay [6], 159 ± 22 nM. Besides, the figures for the “Selectivity A1/A3” value in assay [1] and in assay [2] were 160 and 35.6, respectively. In assay [4], the inhibition at 10 µM is 52%. The inhibition at 100 µM in [5] was 20%.

`CNC(=O)C12CC1C(n1cnc3c(NCc4cccc(Cl)c4)nc(C#CCCC(=O)O)nc31)C(O)C2O` (stereo not shown) [Compound 33] yielded a Ki in [1] of 61.1 ± 35.8 nM. Also, on human A3AR, the Emax at 10 µM was 106 ± 17.7%.

Take `CNC(=O)[C@@]12C[C@@H]1[C@@H](n1cnc3c(NCc4cccc(Cl)c4)nc(C#Cc4ccc(F)cc4)nc31)[C@H](O)[C@@H]2O` [Compound 328, (1S,2R,3S,4R,5S)-4-(6-(3-Chlorobenzylamino)-2-((4-fluorophenyl)ethynyl)-9H-purin-9-yl)-2,3-dihydroxy-N-methylbicyclo[3.1.0]hexane-1-carboxamide]: at mA1AR, the “% inhibition mA1” value is listed as “(39%)”. In addition, the inhibition at 10 µM at hA1AR worked out at 19%; on hA2AAR, 42%. The Ki on mA3AR was 7.5 nM.

Turning to `CNC(=O)C12CC1C(n1cnc3c(NCc4cccc(Cl)c4)nc(C#CCCC(=O)NCCCCN)nc31)C(O)C2O` (stereo not drawn) [Compound 40, (1′S, 2′R, 3′S, 4′S, 5′S)-4′-[6-(3-Chlorobenzylamino)-2-(4-(β-aminobutylaminocarbonyl)-1-butynyl)-9-yl]-2′,3′-dihydroxybicyclo[3.1.0]hexane-1′-carboxylic acid N-methylamide], in assay [1], the affinity corresponds to a Ki of 2.1 ± 0.4 nM and the “Selectivity A1/A3” value is on record as “up to 1900”. Also, the Emax at 10 µM at human A3AR was 102 ± 13%. The molecule further returned a Ki in assay [4] of 766 ± 109 nM.

On to `CNC(=O)C12CC1C(n1cnc3c(NCc4cccc(Cl)c4)nc(C#CCCCCC(=O)OC)nc31)C(O)C2O` (stereo not shown) [Compound 36], for which the inhibitory constant (Ki) in [1] was determined as 11.1 ± 2.3 nM; in assay [4] it was 3540 ± 1370 nM. At human A3AR, the Emax at 10 µM amounted to 90 ± 6.2%. In assay [3], the A1 % inhib. result was “(21 ± 8%)”.

On to `CNC(=O)C12CC1C(n1cnc3c(NCc4cccc(Cl)c4)nc(C#CCCC(=O)OC)nc31)C(O)C2O` (stereo not shown) [Compound 35], for which the affinity in assay [1] corresponds to a Ki of 5.5 ± 0.3 nM. Also, the Emax at 10 µM on human A3AR turned out to be 74.4 ± 5.1%. The A1 % inhib. result in [3] was “(19 ± 3%)”.

In the case of `CNC(=O)[C@@]12C[C@@H]1[C@@H](n1cnc3c(NCc4cccc(Cl)c4)nc(C#Cc4ccccc4)nc31)[C@H](O)[C@@H]2O` [Compound 327, (1S,2R,3S,4R,5S)-4-(6-(3-Chlorobenzylamino)-2-(phenylethynyl)-9H-purin-9-yl)-2,3-dihydroxy-N-methylbicyclo[3.1.0]hexane-1-carboxamide], at mA1AR, the “% inhibition mA1” value is on record as “(41%)”. In addition, the values for the inhibition at 10 µM at hA1AR and at hA2AAR were 18% and 27%, respectively. Besides, the inhibitory constant (Ki) at mA3AR was found to be 16 nM.
